These results are taken from patent US11590115B2, “Pseudomonas strains and their metabolites to control fish diseases” (T3 BIOSCIENCE, LLC, priority 2020, dated 2023).

Experiment [1] concerns Aeromonas salmonicida. Description: MIC determination in broth, 96 well plates (OD600 and plating). It counts as cell-based. Particulars: Aeromonas salmonicida (furunculosis), (TSA/TSB)/20° C.
The subject of experiment [2] is Streptococcus agalactiae. The description is as above. As to conditions: Streptococcus agalactiae (streptococcosis), (TSAY/TSBY)/28° C. The experiment is classed as cell-based.
The subject of experiment [3] is Streptococcus iniae. Described as above. The experiment is classed as cell-based. As to conditions: Streptococcus iniae (streptococcosis), (TSAY/TSBY)/28° C.
The test system of experiment [4] is Tenacibaculum maritimum. The description is as above. It counts as cell-based. As to conditions: Tenacibaculum maritimum (tenacibaculosis), (MA/MB)/15° C.
Experiment [5] has as its system Saprolegnia parasitica. Description: Minimum lethal concentration (MLC) determination. As to conditions: Saprolegnia parasitica (saprolegniasis); GY/20° C.; in triplicate. The experiment is classed as cell-based.
Experiment [6] has as its system Vibrio parahaemolyticus. Nature of the experiment: MIC determination in broth, 96 well plates (OD600 and plating).

≈ marks a conversion by molar mass, not a printed value. Where two headings read alike, the source gives them in different places.

Regarding `CSC1=C(C)C(=O)C(=O)NC1=O` [RejuAgro A], the MIC (in general, the least concentration at which growth counts as inhibited) in experiment [1] was 1.56 µg/mL (≈ 8.42 µM); in experiment [1] (read-out: MIC), 1.56 µg/mL (≈ 8.42 µM); in experiment [2], 1.56 µg/mL (≈ 8.42 µM); in experiment [2] (read-out: MIC), 1.56 µg/mL (≈ 8.42 µM); in experiment [3], 3.13 µg/mL (≈ 16.9 µM); in experiment [3] (read-out: MIC), 3.13 µg/mL (≈ 16.9 µM). The MIC came out at 12.5 µg/mL (≈ 67.5 µM) in experiment [4]; 12.5 µg/mL (≈ 67.5 µM) in experiment [4] (read-out: MIC); 0.39 µg/mL (≈ 2.11 µM) in experiment [6] (Vibrio parahaemolyticus); 0.39 µg/mL (≈ 2.11 µM) in experiment [6] (Vibrio parahaemolyticus (vibriosis, acute hepatopancreatic necrosis disease), (TSA2/TSB2)/37° C.). Further, the “MLC (minimum lethal concentration)” value in experiment [5] stood at 100 µg/mL (≈ 540 µM).
